Article PMC7912279, “Preclinical Evaluation of ^99mTc-Labeled GRPR Antagonists maSSS/SES-PEG2-RM26 for Imaging of Prostate Cancer” (Pharmaceutics, 2021)

Experiments:
[1] = Octanol-water distribution coefficient (logD); assay type: physicochemical; conditions: determined as previously described [35]
Experimental: To test the stability, the radiolabeled peptides were incubated with 300× molar excess of cysteine or with PBS at room temperature for 1 h. The octanol-water distribution coefficient (logD) was determined as previously described.

PC-3 xenografts = experiment: Biodistribution in tumor bearing mice; assay type: in vivo; conditions: BALB/c nu/nu mice bearing PC-3 xenografts, 3 h pi
Experimental: Animals: All in vivo experiments were carried out on BALB/c nu/nu or NMRI mice provided by Scanbur A/S (Sollentuna, Sweden). All animal studies were approved by the Ethics Committee for Animal Research in Uppsala (Sweden), following the national legislation on the protection of laboratory animals (project identification code of approval 5/16, 26 February 2016). Prostate cancer xenografts expressing GRPR were established in BALB/c nu/nu mice by subcutaneous injection of PC-3 cell suspension in PBS (7 × 10^6 cells in 100 µL) four weeks before the experiment. Four to seven mice per data point were used in in vivo experiments, two mice per data point were used in metabolic analysis and SPECT/CT imaging experiments.
Biodistribution in tumor bearing mice: The comparison of biodistribution between the two radiolabeled peptides was evaluated in BALB/c nu/nu mice bearing PC-3 xenografts. Each mouse was injected with 40 pmol (30 kBq, mass of injected peptide was adjusted with unlabeled peptide) of either [^99mTc]Tc-maSSS-PEG2-RM26 or [^99mTc]Tc-maSES-PEG2-RM26. The mice were euthanized 3 h pi. Sample collection and activity measurements were done as described above. The biodistribution of [^99mTc]Tc-maSSS-PEG2-RM26 was further studied at 6 h pi following the same protocol. Additionally for [^99mTc]Tc-maSSS-PEG2-RM26, one group of xenograft bearing mice was injected with 40 pmol (30 kBq, mass of injected peptide was adjusted with unlabeled peptide) of labeled peptide with 5 nmol of unlabeled peptide and euthanized 3 h pi.

[2] = 40 pmol (30 kBq), gamma counter, 4-7 mice

Question: With CC(C)C[C@H](NC(=O)C[C@H](O)[C@H](CC(C)C)NC(=O)[C@H](Cc1c[nH]cn1)NC(=O)CNC(=O)[C@@H](NC(=O)[C@H](C)NC(=O)[C@H](Cc1c[nH]c2ccccc12)NC(=O)[C@H](CCC(N)=O)NC(=O)[C@@H](Cc1ccccc1)NC(=O)COCCOCCNC(=O)[C@H](CO)NC(=O)[C@H](CCC(=O)O)NC(=O)[C@H](CO)NC(=O)CS)C(C)C)C(N)=O [[^99mTc]Tc-maSES-PEG2-RM26, metal not drawn] as the molecule, how does the logD [1] read?
Answer: The logD was -1.0.

Question: And the “uptake, Blood” value (PC-3 xenografts; [2])?
Answer: The value was 0.15 ± 0.07 % IA/g.

Question: And the “uptake, Bone” value (PC-3 xenografts; [2])?
Answer: The value was 0.04 ± 0.02 % IA/g.

Question: And the “uptake, GI (gastrointestinal tract with content)” value (PC-3 xenografts; [2])?
Answer: The value was 46 ± 4 % IA.

Question: What about the “uptake, Intestine” value (PC-3 xenografts; [2]) of the same molecule?
Answer: Its value is 1.1 ± 0.6 % IA/g.

Question: What about the “uptake, Kidneys” value (PC-3 xenografts; [2]) of the same molecule?
Answer: Its value is 3 ± 2 % IA/g.

Question: And the “uptake, Liver” value (PC-3 xenografts; [2])?
Answer: The value was 1.1 ± 0.3 % IA/g.

Question: What about the “uptake, Lung” value (PC-3 xenografts; [2]) of the same molecule?
Answer: The value was 0.14 ± 0.07 % IA/g.

Question: What about the “uptake, Muscle” value (PC-3 xenografts; [2]) of the same molecule?
Answer: The value was 0.04 ± 0.03 % IA/g.

Question: What about the “uptake, Pancreas” value (PC-3 xenografts; [2]) of the same molecule?
Answer: Its value is 2 ± 1 % IA/g.

Question: And the “uptake, Spleen” value (PC-3 xenografts; [2])?
Answer: The value was 0.11 ± 0.02 % IA/g.

Question: What about the “uptake, Stomach” value (PC-3 xenografts; [2]) of the same molecule?
Answer: The value was 0.9 ± 0.4 % IA/g.

Question: What about the “uptake, Tumor” value (PC-3 xenografts; [2]) of the same molecule?
Answer: Its value is 2.9 ± 0.7 % IA/g.

Question: And the “Tumor-to-non-tumor ratio, Blood” value (PC-3 xenografts; 40 pmol)?
Answer: The value was 26 ± 19.

Question: What about the “Tumor-to-non-tumor ratio, Bone” value (PC-3 xenografts; 40 pmol) of the same molecule?
Answer: Its value is 84 ± 54.

Question: And the “Tumor-to-non-tumor ratio, Intestine” value (PC-3 xenografts; 40 pmol)?
Answer: Its value is 3 ± 2.

Question: And the “Tumor-to-non-tumor ratio, Kidneys” value (PC-3 xenografts; 40 pmol)?
Answer: The value was 2 ± 2.

Question: What about the “Tumor-to-non-tumor ratio, Liver” value (PC-3 xenografts; 40 pmol) of the same molecule?
Answer: The value was 3.0 ± 0.8.

Question: What about the “Tumor-to-non-tumor ratio, Lung” value (PC-3 xenografts; 40 pmol) of the same molecule?
Answer: Its value is 26 ± 16.

Question: And the “Tumor-to-non-tumor ratio, Muscle” value (PC-3 xenografts; 40 pmol)?
Answer: The value was 90 ± 52.

Question: What about the “Tumor-to-non-tumor ratio, Pancreas” value (PC-3 xenografts; 40 pmol) of the same molecule?
Answer: Its value is 1.5 ± 0.8.

Question: And the “Tumor-to-non-tumor ratio, Spleen” value (PC-3 xenografts; 40 pmol)?
Answer: The value was 24 ± 10.

Question: What about the “Tumor-to-non-tumor ratio, Stomach” value (PC-3 xenografts; 40 pmol) of the same molecule?
Answer: Its value is 4 ± 2.
